Laboratory results taken from patent US11059795B2, “Androgen receptor modulators and methods for their use” (ESSA Pharma, Inc., priority 2018, dated 2021).
pIC50: −log10 of the molar value.

Legend:
[1] = Microsomal stability assay, mouse liver microsomes; format: in vitro ADME; conditions: mouse, liver microsomes, pH 7.4, mouse liver microsomes, 1 μM compound, 0.5 mg/mL protein, 37° C.; read-out: MLM +30/− NADPH: Clint (μL/min/mg protein)
Protocol: (§1) Microsomal stability assay is a widely used in vitro model to characterize the metabolic conversion by phase I enzymes, such as cytochrome P450 (CYP) enzymes. Since metabolism is known to be highly variable in different species, microsomal stability assay is commonly run in multiple species. Metabolic stability of testing compound can be evaluated using human, rat, mouse, or other animal liver or intestine microsomes to predict intrinsic clearance.
(§2) The assay was carried out in 96-well microtiter plates at 37° C. Reaction mixtures (25 μL) contained a final concentration of 1 μM test compound, 0.5 mg/mL liver microsomes protein, and 1 mM NADPH and/or 1 mM UDPGA (with alamethicin) in 100 mM potassium phosphate, pH 7.4 buffer with 3 mM MgCl2. The incubation was done with N=1, but duplicate incubation at each time point can be prepared if necessary. At each of the time points (for example, 0, 15, 30, and 60 minutes), 150 μL of quench solution (100% acetonitrile with 0.1% formic acid) with internal standard was transferred to each well. Besides the zero minute controls, mixtures containing the same components except the NADPH can also be prepared as the negative control. Verapamil was included as a positive control to verify assay performance. Plates were sealed, vortexed, and centrifuged at 4° C. for 15 minutes at 4000 rpm. The supernatant is transferred to fresh plates for LC/MS/MS analysis.
(§3) Summarized conditions: [Compound]=[…], [LM]=0.5 mg/mL, [NADPH]=1 mM and/or [UDPGA]=1 mM, Buffer=100 mM Potassium Phosphate, pH 7.4 with 3 mM MgCl2, Time=0, 15, 30, and 60 min, and Temperature=37° C.
(§4) All samples were analyzed on LC/MS/MS using an AB Sciex API 4000 instrument, coupled to a Shimadzu LC-20AD LC Pump system. Analytical samples were separated using a Waters Atlantis T3 dC18 reverse phase HPLC column (20 mm×2.1 mm) at a flow rate of 0.5 mL/min. The mobile phase consisted of 0.1% formic acid in water (solvent A) and 0.1% formic acid in 100% acetonitrile (solvent B).
(§5) The extent of metabolism is calculated as the disappearance of the test compound, compared to the 0-min time incubation. Initial rates are calculated for the compound concentration and used to determine half-life (t½) values and subsequently, the intrinsic clearance (Clint). Clint=(0.693)(1/t½ (min))(g of liver/kg of body weight)(mL incubation/mg of microsomal protein)(45 mg of microsomal protein/g of liver weight)

[2] = Microsomal stability assay, human liver microsomes; format: in vitro ADME; conditions: pH 7.4, 1 μM compound, 0.5 mg/mL protein, 37° C., read-out: HLM +/− NADPH: Clint (μL/min/mg protein)
Protocol: as §1, §2, §3, §4, §5

androgen receptor (AR) = molecular target: T1, androgen receptor (AR) (Homo sapiens, UniProt P10275, T878A); assay: Androgen-induced PSA (6.1 kb)-luciferase reporter assay in LNCaP cells; format: cell-based; conditions: LNCaP cells transfected with PSA (6.1 kb)-luciferase reporter, R1881 1 nM, 24 h; read-out: PSA-Luc IC50 Range
T1 construct: LNCaP cells were transiently transfected with the PSA (6.1 kb)-luciferase reporter for 24 h; endogenous in cells; host or cells: LNCaP
T1 sequence (P10275 1-920 T878A): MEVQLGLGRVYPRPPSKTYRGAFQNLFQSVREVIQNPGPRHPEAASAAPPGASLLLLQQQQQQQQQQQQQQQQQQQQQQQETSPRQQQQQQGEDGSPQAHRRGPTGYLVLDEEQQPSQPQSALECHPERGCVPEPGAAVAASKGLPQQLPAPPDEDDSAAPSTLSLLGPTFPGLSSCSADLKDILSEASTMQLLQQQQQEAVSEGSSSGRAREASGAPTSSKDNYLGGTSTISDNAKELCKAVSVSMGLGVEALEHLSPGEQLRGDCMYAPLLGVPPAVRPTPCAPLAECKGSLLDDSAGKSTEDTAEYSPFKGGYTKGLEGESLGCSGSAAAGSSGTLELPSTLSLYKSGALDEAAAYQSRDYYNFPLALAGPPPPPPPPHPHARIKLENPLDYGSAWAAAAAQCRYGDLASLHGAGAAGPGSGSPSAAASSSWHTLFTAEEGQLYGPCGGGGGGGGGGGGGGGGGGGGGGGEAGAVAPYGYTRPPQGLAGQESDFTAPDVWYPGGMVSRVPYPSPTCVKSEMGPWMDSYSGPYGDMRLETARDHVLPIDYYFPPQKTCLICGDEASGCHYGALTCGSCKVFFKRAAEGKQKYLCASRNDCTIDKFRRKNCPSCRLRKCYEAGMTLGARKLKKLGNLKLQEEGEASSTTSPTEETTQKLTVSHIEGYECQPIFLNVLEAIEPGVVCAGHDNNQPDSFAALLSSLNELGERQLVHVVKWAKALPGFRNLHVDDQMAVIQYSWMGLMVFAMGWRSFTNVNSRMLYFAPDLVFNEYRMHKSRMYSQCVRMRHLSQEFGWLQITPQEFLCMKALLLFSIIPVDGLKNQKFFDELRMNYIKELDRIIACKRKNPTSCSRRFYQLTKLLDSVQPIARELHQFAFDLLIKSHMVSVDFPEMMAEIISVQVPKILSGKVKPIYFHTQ
Protocol: The PSA (6.1 kb)-luciferase reporter contains functional AREs (androgen response elements) to which AR binds in response to androgen to induce luciferase activity.
Cells were lysed using Passive Lysis Buffer (Promega) and then collected into V-bottom 96-well tissue culture plates. Lysates were centrifuged at 4° C. for 5 minutes at 3000 rpm. To measure luminescence of LNCaP cell lysates the Firefly Luciferase Assay System (Promega) was employed, according to manufacturer's protocol. Relative luminescence units (RLU) in cell lysates were detected for 10 seconds using Promega GloMax-Multi Detection Luminometer (Promega). Values were normalized to protein content. GraphPad Prism graphing software was used to calculate IC50 values.
Comparisons between treatment and control groups were compared using Two-Way ANOVA with post-hoc Dunnett's and Tukey's tests. Differences were considered statistically significant at P values less than 0.05.

[3] = Hepatocyte stability assay, mouse hepatocytes; format: in vitro ADME; conditions: mouse, cryopreserved hepatocytes, 1 μM compound, 0.5 million cells/mL, 37° C., read-out: MH +/− NADPH: Clint (μL/min/million cells)
Text: The […] of in vitro intrinsic clearance (Clint) for drug candidates in the early discovery stage is common practice in the pharmaceutical industry. The Clint values of drug candidates can help to confirm whether metabolism is the main clearance pathway when it is compared with the total body clearance in vivo. Hepatocytes are among the routinely used in vitro systems for measuring clearance. Hepatocytes have been reported to retain most of the phase I and phase II metabolic activities, and therefore, it is a useful tool to estimate the intrinsic clearance for potential drug candidates.
Metabolic stability of testing compound were be evaluated using human and mouse hepatocytes and can also be use rat, mouse, or other animal hepatocytes to predict intrinsic clearance. Cryopreserved hepatocytes were removed from the liquid nitrogen tank and thawed in a 37° C. water bath. As soon as the cells pulled away from the vial wall, they were decanted into 48 ml of warm HT medium. Cells were centrifuged for four minutes at 420 rpm (50 g). After removing the supernatant, pellet was re-suspended in warm DMEM medium. Cell density was counted by a hemacytometer.
The assay was carried out in 96-well microtiter plates. Compounds were incubated for 0, 60, 120, and 180 minutes at 37° C. with hepatocytes. Reaction mixtures (50 μL) contained a final concentration of 1 μM test compound, 0.5 million cells/mL hepatocytes in the DMEM medium. At each of the time points (for example, 0, 1, 2, and 3 hours), 200 μL of quench solution (100% acetonitrile with 0.1% formic acid) with internal standard was transferred to each well. Midazolam was included as a positive control to verify assay performance. Plates were sealed and centrifuged at 4° C. for 15 minutes at 4000 rpm. The supernatant is transferred to fresh plates for LC/MS/MS analysis.
Summarized conditions (customizable): [Compound]=[…], Positive control: midazolam and/or naloxone, [Hepatocyte]=0.5 million cells/Ml, time=0, 60, 120, and 180 min, t=37° C.
as §4
The extent of metabolism was calculated as the disappearance of the test compound, compared to the 0-min control reaction incubations. Initial rates were calculated for the compound concentration and used to determine t½ values and subsequently, the intrinsic clearance, Clint. Clint=(0.693)(1/t½(min))(mL incubation/million cells)

microsomal CLint at 1 μM [1] [µL/min/mg] | microsomal CLint at 1 μM [2] [µL/min/mg] | pIC50 (androgen receptor (AR)) | hepatocyte CLint at 1 μM [3] [µL/min/1e6 cells] | Compound
< 12 | < 12 | > 6.30 | < 4 | C[C@@H](Oc1ccc(C(C)(C)c2cc(Cl)c(OCCCl)c(C#N)c2)cc1)c1ccnc(NS(C)(=O)=O)n1 (single isomer, unassigned) [Compound A169]
12 to 48 | < 12 | 5.70 to 6.30 | ≥ 18 | CC(Oc1ccc(C(C)(C)c2cc(Cl)c(OCCCl)c(C#N)c2)cc1)c1ocnc1S(C)(=O)=O (centres unmarked) [Compound A87]
≥ 48 | ≥ 48 | 5.70 to 6.30 | ≥ 18 | Cc1cc(C(C)(C)c2ccc(OC(C)c3ocnc3S(C)(=O)=O)cc2)cc(C#N)c1OCCCl (centres unmarked) [Compound A88]
≥ 48 | 12 to 48 | 5.70 to 6.30 | ≥ 18 | Cc1cc(C(C)(C)c2ccc(OC(C)c3ncc(S(C)(=O)=O)o3)cc2)cc(C#N)c1OCCCl (centres unmarked) [Compound A89]
≥ 48 | < 12 | 5.70 to 6.30 | ≥ 18 | CC(Oc1ccc(C(C)(C)c2cc(Cl)c(OCCCl)c(C#N)c2)cc1)c1ncc(S(C)(=O)=O)o1 (centres unmarked) [Compound A90]
< 12 | < 12 | 5.70 to 6.30 | 4 to 18 | CC(Oc1ccc(C(C)(C)c2cc(Cl)c(OCCCl)c(C#N)c2)cc1)c1coc(NS(C)(=O)=O)n1 (centres unmarked) [Compound A91]
12 to 48 | 12 to 48 | > 6.30 | ≥ 18 | CC(Oc1ccc(C(C)(C)c2cc(Cl)c(OCCCl)c(C#N)c2)cc1)c1cnc(NS(C)(=O)=O)o1 (centres unmarked) [Compound A92]
12 to 48 | 12 to 48 | – | 4 to 18 | CC(C)(C)C(=O)N(c1ccc(OCc2coc(NS(C)(=O)=O)n2)cc1)c1cc(Cl)c(OCCCl)c(C#N)c1 [Compound A127]
12 to 48 | 12 to 48 | – | ≥ 18 | CC(C)(c1ccc(OCc2csc(S(C)(=O)=O)n2)cc1)c1cc(Cl)c(OCCCl)c(C#N)c1 [Compound A144]
< 12 | 12 to 48 | – | ≥ 18 | CC(C)(c1ccc(C(=O)Nc2ccnc(N)n2)cc1)c1cc(Cl)c(OCCCl)c(Cl)c1 [Compound A146]
12 to 48 | < 12 | < 5.70 | – | CC(C)(c1cc(Cl)c(OCCCl)c(Cl)c1)c1ccc(N2C(=O)N(S(C)(=O)=O)C(C)(C)C2=O)c(C#N)c1 [Compound B10]

Second part, the compound before the results:

Compound | microsomal CLint at 1 μM [1] [µL/min/mg] | microsomal CLint at 1 μM [2] [µL/min/mg] | pIC50 (androgen receptor (AR)) | hepatocyte CLint at 1 μM [3] [µL/min/1e6 cells]
Cc1cc(C(C)(C)c2ccc(OC(C)c3scnc3S(C)(=O)=O)cc2)cc(C#N)c1OCCCl (centres unmarked) [Compound A70] | ≥ 48 | 12 to 48 | > 6.30 | 4 to 18
CC(C)(c1ccc(OCc2[nH]cnc2S(C)(=O)=O)cc1)c1cc(Cl)c(OCCCl)c(Cl)c1 [Compound A71] | < 12 | 12 to 48 | 5.70 to 6.30 | 4 to 18
CC(Oc1ccc(C(C)(C)c2cc(Cl)c(OCCCl)c(C#N)c2)cc1)c1ncoc1S(C)(=O)=O (centres unmarked) [Compound A79] | ≥ 48 | < 12 | > 6.30 | ≥ 18
Cc1oc(S(C)(=O)=O)nc1COc1ccc(C(C)(C)c2cc(Cl)c(OCCCl)c(C#N)c2)cc1 [Compound A80] | 12 to 48 | < 12 | > 6.30 | ≥ 18
Cc1nc(S(C)(=O)=O)oc1COc1ccc(C(C)(C)c2cc(Cl)c(OCCCl)c(C#N)c2)cc1 [Compound A81] | ≥ 48 | 12 to 48 | > 6.30 | ≥ 18
CC(Oc1ccc(C(C)(C)c2cc(Cl)c(OCCCl)c(C#N)c2)cc1)c1coc(S(C)(=O)=O)n1 (centres unmarked) [Compound A85] | ≥ 48 | < 12 | > 6.30 | ≥ 18
Cc1cc(C(C)(C)c2ccc(OCc3csc(S(C)(=O)=O)n3)cc2)cc(C#N)c1OCCCl [Compound A86] | 12 to 48 | 12 to 48 | > 6.30 | ≥ 18
